{"source": "patent US7132536B2", "about": "“Triaza- and tetraaza-anthracenedione derivatives, their preparation and their use as pharmaceuticals” (Sanofi-aventis Deutschland GmbH, priority 2003, dated 2006)", "test_system": "eNOS promoter", "assay": "Activation of eNOS transcription (eNOS promoter-luciferase reporter gene assay)", "assay_type": "cell-based", "details": "human endothelial cell line stably transfected with eNOS promoter-firefly luciferase construct; 18 h incubation; EC50 determined graphically; read-out: EC50 of transcription induction ratio (TIR)", "method": "Activation of eNOS transcription was measured as described in detail by Li et al., “Activation of protein kinase C alpha and/or epsilon enhances transcription of the human endothelial nitric oxide synthase gene”, Mol. Pharmacol. 53 (1998) 630. Briefly, a 3.5 kB long fragment 5′ of the starting codon of the eNOS gene was cloned, sequenced and cloned in firefly luciferase expression plasmids to monitor activation of the eNOS promoter by reporter gene activity. A human endothelial cell line stable transfected and expressing this promoter-reporter construct was used for compound testing. Cells were incubated for 18 h with the compounds.\nAll compounds were dissolved in sterile dimethylsulfoxide (DMSO). A final concentration of 0.5% DMSO in complete medium was allowed. Induction of reporter gene expression in these cells was measured using a standard luciferase assay system (Promega, Cat. No. E150) according to the manufacturer's instructions. Luciferase induction in cells incubated with compounds were compared to those incubated with solvent alone. The ratio of both activities (transcription induction ratio, TIR) was plotted as a function of compound concentration. Typically, TIR values started at low concentrations at a ratio of 1, indicating no compound effect, and extended up to a maximum TIR value TIR(max) which indicates the increase of the eNOS transcription. EC50 values of transcription induction ratios as a function of compound concentration were determined graphically.", "note": "pEC50: −log10 of the molar value. Counter-ions that a name gives are not always drawn.", "data": [{"smiles": "CC(C)[C@H]1C(=O)N(CCCCc2ccccc2)CC2N(CCCn3ccnc3)c3ccc([N+](=O)[O-])cc3C(=O)N21", "note": "(stereo partly drawn) [Example 1, (4S)-9-(3-(Imidazol-1-yl)propyl)-4-isopropyl-6-nitro-2-(4-phenylbutyl)-1,2,9,9a-tetrahydro-2,4a,9-triaza-anthracene-3,10(4H)-dione trifluoroacetic acid salt]", "values": [{"measurement": "pEC50", "value": 5.66}]}, {"smiles": "CC(C)[C@H]1C(=O)N(Cc2ccc(C(C)(C)C)cc2)CC2N(CCCn3ccnc3)c3ccc([N+](=O)[O-])cc3C(=O)N21", "note": "(stereo partly drawn) [Example 2, (4S)-2-(4-tert-Butylbenzyl)-9-(3-(imidazol-1-yl)propyl)-4-isopropyl-6-nitro-1,2,9,9a-tetrahydro-2,4a,9-triaza-anthracene-3,10(4H)-dione trifluoroacetic acid salt]", "values": [{"measurement": "pEC50", "value": 5.92}]}, {"smiles": "CC(C)[C@H]1C(=O)N(Cc2cccc3ccccc23)CC2N(CCCn3ccnc3)c3ccc([N+](=O)[O-])cc3C(=O)N21", "note": "(stereo partly drawn) [Example 3, (4S)-9-(3-(Imidazol-1-yl)propyl)-4-isopropyl-2-(naphth-1-ylmethyl)-6-nitro-1,2,9,9a-tetrahydro-2,4a,9-triaza-anthracene-3,10(4H)-dione trifluoroacetic acid salt]", "values": [{"measurement": "pEC50", "value": 4.70}]}, {"smiles": "O=C1[C@H](Cc2cccc(F)c2)N2C(=O)c3cc([N+](=O)[O-])ccc3N(CCCn3ccnc3)C2CN1CCCCc1ccccc1", "note": "(stereo partly drawn) [Example 4, (4S)-4-(3-Fluorobenzyl)-9-(3-(imidazol-1-yl)propyl)-6-nitro-2-(4-phenylbutyl)-1,2,9,9a-tetrahydro-2,4a,9-triaza-anthracene-3,10(4H)-dione trifluoroacetic acid salt]", "values": [{"measurement": "pEC50", "value": 5.10}]}, {"smiles": "O=C1[C@H](C2CCCCC2)N2C(=O)c3cc([N+](=O)[O-])ccc3N(CCCn3ccnc3)C2CN1CCCCc1ccccc1", "note": "(stereo partly drawn) [Example 5, (4S)-4-Cyclohexyl-9-(3-(imidazol-1-yl)propyl)-6-nitro-2-(4-phenylbutyl)-1,2,9,9a-tetrahydro-2,4a,9-triaza-anthracene-3,10(4H)-dione trifluoroacetic acid salt]", "values": [{"measurement": "pEC50", "value": 5.55}]}, {"smiles": "COc1ccc(C[C@H]2C(=O)N(CCCCc3ccccc3)CC3N(CCCn4ccnc4)c4ccc([N+](=O)[O-])cc4C(=O)N32)cc1OC", "note": "(stereo partly drawn) [Example 6, (4S)-4-(3,4-Dimethoxybenzyl)-9-(3-(imidazol-1-yl)propyl)-6-nitro-2-(4-phenylbutyl)-1,2,9,9a-tetrahydro-2,4a,9-triaza-anthracene-3,10(4H)-dione trifluoroacetic acid salt]", "values": [{"measurement": "pEC50", "value": 4.62}]}, {"smiles": "CC(C)[C@H]1C(=O)N(CCCCc2ccccc2)CC2N(CCc3ccncc3)c3ccc([N+](=O)[O-])cc3C(=O)N21", "note": "(stereo partly drawn) [Example 7, (4S)-4-Isopropyl-6-nitro-2-(4-phenylbutyl)-9-(2-(pyridin-4-yl)ethyl)-1,2,9,9a-tetrahydro-2,4a,9-triaza-anthracene-3,10(4H)-dione trifluoroacetic acid salt]", "values": [{"measurement": "pEC50", "value": 4.70}]}, {"smiles": "O=C1[C@H](Cc2c[nH]cn2)N2C(=O)c3cc([N+](=O)[O-])ccc3N(CCCCc3ccccc3)C2CN1CCCCc1ccccc1", "note": "(stereo partly drawn) [Example 8, (4S)-4-(1H—Imidazol-4-ylmethyl)-6-nitro-2,9-bis(4-phenylbutyl)-1,2,9,9a-tetrahydro-2,4a,9-triaza-anthracene-3,10(4H)-dione trifluoroacetic acid salt]", "values": [{"measurement": "pEC50", "value": 5.22}]}, {"smiles": "O=C1[C@H](Cc2c[nH]cn2)N2C(=O)c3cc([N+](=O)[O-])ccc3N(Cc3ccc(OC(F)(F)F)cc3)C2CN1CCCCc1ccccc1", "note": "(stereo partly drawn) [Example 9, (4S)-4-(1H-Imidazol-4-ylmethyl)-6-nitro-2-(4-phenylbutyl)-9-(4-trifluoromethoxy-benzyl)-1,2,9,9a-tetrahydro-2,4a,9-triaza-anthracene-3,10(4H)-dione trifluoroacetic acid salt]", "values": [{"measurement": "pEC50", "value": 5.08}]}, {"smiles": "CC(C)[C@H]1C(=O)N(CCCCc2ccccc2)CC2N(CCCn3ccnc3)c3ccc(C(F)(F)F)cc3C(=O)N21", "note": "(stereo partly drawn) [Example 10, (4S)-9-(3-(Imidazol-1-yl)propyl)-4-isopropyl-2-(4-phenylbutyl)-6-trifluoromethyl-1,2,9,9a-tetrahydro-2,4a,9-triaza-anthracene-3,10(4H)-dione trifluoroacetic acid salt]", "values": [{"measurement": "pEC50", "value": 4.92}]}, {"smiles": "CC(C)[C@H]1C(=O)N(Cc2ccc(C(F)(F)F)cc2)CC2N(CCCn3ccnc3)c3ccc(C(F)(F)F)cc3C(=O)N21", "note": "(stereo partly drawn) [Example 11, (4S)-9-(3-(Imidazol-1-yl)propyl)-4-isopropyl-6-trifluoromethyl-2-(4-trifluoromethyl-benzyl)-1,2,9,9a-tetrahydro-2,4a,9-triaza-anthracene-3,10(4H)-dione trifluoroacetic acid salt]", "values": [{"measurement": "pEC50", "value": 4.70}]}, {"smiles": "CC(C)[C@H]1C(=O)N(Cc2ccc(C(F)(F)F)cc2)CC2N(CCc3ccncc3)c3ccc(C(F)(F)F)cc3C(=O)N21", "note": "(stereo partly drawn) [Example 12, (4S)-4-Isopropyl-9-(2-(pyridin-4-yl)ethyl)-6-trifluoromethyl-2-(4-trifluoromethylbenzyl)-1,2,9,9a-tetrahydro-2,4a,9-triaza-anthracene-3,10(4H)-dione trifluoroacetic acid salt]", "values": [{"measurement": "pEC50", "value": 4.70}]}, {"smiles": "O=C1[C@H](C2CCCCC2)N2C(=O)c3cc(C(F)(F)F)ccc3N(CCCn3ccnc3)C2CN1CCCCc1ccccc1", "note": "(stereo partly drawn) [Example 13, (4S)-4-Cyclohexyl-9-(3-(imidazol-1-yl)propyl)-2-(4-phenylbutyl)-6-trifluoromethyl-1,2,9,9a-tetrahydro-2,4a,9-triaza-anthracene-3,10(4H)-dione trifluoroacetic acid salt]", "values": [{"measurement": "pEC50", "value": 5.15}]}, {"smiles": "COc1ccc(CN2CC3N(CCCn4ccnc4)c4ccc(C(F)(F)F)cc4C(=O)N3[C@@H](C(C)C)C2=O)c(OC)c1", "note": "(stereo partly drawn) [Example 14, (4S)-2-(2,4-Dimethoxybenzyl)-9-(3-(imidazol-1-yl)propyl)-4-isopropyl-6-trifluoromethyl-1,2,9,9a-tetrahydro-2,4a,9-triaza-anthracene-3,10(4H)-dione trifluoroacetic acid salt]", "values": [{"measurement": "pEC50", "value": 4.92}]}, {"smiles": "CC(C)[C@H]1C(=O)N(Cc2ccc(C(C)(C)C)cc2)CC2N(CCCn3ccnc3)c3ccc(C(F)(F)F)cc3C(=O)N21", "note": "(stereo partly drawn) [Example 15, (4S)-2-(4-tert-Butylbenzyl)-9-(3-(imidazol-1-yl)propyl)-4-isopropyl-6-trifluoromethyl-1,2,9,9a-tetrahydro-2,4a,9-triaza-anthracene-3,10(4H)-dione trifluoroacetic acid salt]", "values": [{"measurement": "pEC50", "value": 5.40}]}, {"smiles": "O=C1[C@H](Cc2cccc(F)c2)N2C(=O)c3cc(C(F)(F)F)ccc3N(CCCn3ccnc3)C2CN1CCCCc1ccccc1", "note": "(stereo partly drawn) [Example 16, (4S)-4-(3-Fluorobenzyl)-9-(3-(imidazol-1-yl)propyl)-2-(4-phenylbutyl)-6-trifluoromethyl-1,2,9,9a-tetrahydro-2,4a,9-triaza-anthracene-3,10(4H)-dione trifluoroacetic acid salt]", "values": [{"measurement": "pEC50", "value": 5.10}]}, {"smiles": "CC(C)C1C(=O)N(Cc2ccc(C(C)(C)C)cc2)CC2N(CCCn3ccnc3)c3cccnc3C(=O)N12", "note": "(stereo not drawn) [Example 36, 6-(4-tert-Butylbenzyl)-10-(3-(imidazol-1-yl)propyl)-8-isopropyl-5,6,10,10a-tetrahydro-1,6,8a,10-tetraaza-anthracene-7,9(8H)-dione trifluoroacetic acid salt]", "values": [{"measurement": "pEC50", "value": 4.00}]}, {"smiles": "Cc1ccc2c(n1)C(=O)N1C(C(C)C)C(=O)N(Cc3ccc(C(C)(C)C)cc3)CC1N2CCCn1ccnc1", "note": "(stereo not drawn) [Example 37, 6-(4-tert-Butylbenzyl)-10-(3-(imidazol-1-yl)propyl)-8-isopropyl-2-methyl-5,6,10,10a-tetrahydro-1,6,8a,10-tetraaza-anthracene-7,9(8H)-dione trifluoroacetic acid salt]", "values": [{"measurement": "pEC50", "value": 4.00}]}, {"smiles": "CC[C@H]1C(=O)N(Cc2ccc(C(C)(C)C)cc2)CC2N(CCCn3ccnc3)c3ccc([N+](=O)[O-])cc3C(=O)N21", "note": "(stereo partly drawn) [Example 38, (4S)-2-(4-tert-Butylbenzyl)-4-ethyl-9-(3-(imidazol-1-yl)propyl)-6-nitro-1,2,9,9a-tetrahydro-2,4a,9-triaza-anthracene-3,10(4H)-dione trifluoroacetic acid salt]", "values": [{"measurement": "pEC50", "value": 6.40}]}, {"smiles": "CC(C)C1C(=O)N(Cc2ccc(C(C)(C)C)cc2)CC2N(CCCn3ccnc3)c3ccc([N+](=O)[O-])cc3C(=O)N12", "note": "(stereo not drawn) [Example 39, 2-(4-tert-Butylbenzyl)-9-(3-(imidazol-1-yl)propyl)-4-isopropyl-6-nitro-1,2,9,9a-tetrahydro-2,4a,9-triaza-anthracene-3,10(4H)-dione trifluoroacetic acid salt]", "values": [{"measurement": "pEC50", "value": 6.54}]}, {"smiles": "CCC1C(=O)N(Cc2ccc(C(C)(C)C)cc2)CC2N(CCc3ccncc3)c3ccc([N+](=O)[O-])cc3C(=O)N12", "note": "(stereo not drawn) [Example 40, 2-(4-tert-Butylbenzyl)-4-ethyl-6-nitro-9-(2-(pyridin-4-yl)ethyl)-1,2,9,9a-tetrahydro-2,4a,9-triaza-anthracene-3,10(4H)-dione trifluoroacetic acid salt]", "values": [{"measurement": "pEC50", "value": 6.66}]}]}
